Active and inactive are the calls of the source. The rule behind the calls is not given here.
Experiments:
[1] = tested on: GAMG; experiment: Inhibition of carbonic anhydrase 9 protein expression in human GaMG cells under hypoxic conditions at 500 nM treated prior to hypoxic-challenge by Western blotting analysis; type: functional, cell-based
[2] = tested on: U-87 MG; experiment: Inhibition of carbonic anhydrase 9 mRNA expression in human U87MG cells under hypoxic conditions at 500 nM treated prior to hypoxic-challenge by RT-PCR analysis; type: functional, cell-based; settings: U-87MG ATCC
[3] = tested on: U-251; experiment: Inhibition of carbonic anhydrase 9 mRNA expression in human U251 cells under hypoxic conditions at 500 nM treated prior to hypoxic-challenge by RT-PCR analysis; type: functional, cell-based
[4] = tested on: U-373MG ATCC; experiment: Inhibition of carbonic anhydrase 9 mRNA expression in human U373 cells under hypoxic conditions at 500 nM treated prior to hypoxic-challenge by RT-PCR analysis; type: functional, cell-based
[5] = tested on: GAMG; experiment: Inhibition of carbonic anhydrase 9 mRNA expression in human GaMG cells under hypoxic conditions at 400 nM treated prior to hypoxic-challenge by RT-PCR analysis; type: functional, cell-based
[6] = Inhibition of carbonic anhydrase 9 protein expression in human U87MG cells under hypoxic conditions at 500 nM treated prior to hypoxic-challenge by Western blotting analysis; type: functional, cell-based; settings: U-87MG ATCC
[7] = tested on: U-251; experiment: Inhibition of carbonic anhydrase 9 protein expression in human U251 cells under hypoxic conditions at 500 nM treated prior to hypoxic-challenge by Western blotting analysis; type: functional, cell-based
[8] = Inhibition of carbonic anhydrase 9 protein expression in human U373 cells under hypoxic conditions at 500 nM treated prior to hypoxic-challenge by Western blotting analysis; type: functional, cell-based; settings: U-373MG ATCC
[9] = tested on: U-373MG ATCC; settings: Homo sapiens
Description: Inhibition of carbonic anhydrase 9 mRNA expression in human U373 cells under hypoxic conditions at 4500 nM treated prior to hypoxic-challenge followed by compound addition 12 hrs after first treatment by RT-PCR analysis

[10] = tested on: U-87 MG; settings: Homo sapiens; U-87MG ATCC
Description: Inhibition of carbonic anhydrase 9 mRNA expression in human U87MG cells under hypoxic conditions at 5000 nM treated prior to hypoxic-challenge followed by compound addition 12 hrs after first treatment by RT-PCR analysis

SMILES	inhibition [1]	inhibition [2]	inhibition [3]	inhibition [4]	inhibition [5]	inhibition [6]	inhibition [7]	inhibition [8]	inhibition [9]	inhibition [10]
CN1C(=O)[C@]2(Cc3cn([C@]45C[C@@]67SS[C@@](CO)(C(=O)N6[C@H]4Nc4ccccc45)N(C)C7=O)c4ccccc34)SS[C@@]1(CO)C(=O)N2C	Active	Active	Active	Active	Active	inactive	inactive	inactive		
CC(=O)Nc1nnc(S(N)(=O)=O)s1									Active	Active
